Test results: the NIST ThermoML archive (doi:10.1016/j.fluid.2015.12.007)

Experiment: xn = mol fraction of the nth substance listed
Details: 101 kPa, Liquid; for speed of sound: Sing-around technique in a fixed-path interferometer; for mass density: Vibrating tube method

CC(O)CO (stereo not given) [1,2-propanediol] + CCCC[n+]1ccn(C)c1.O=S(=O)([N-]S(=O)(=O)C(F)(F)F)C(F)(F)F
Details	mass density [kg/m3]	speed of sound [m/s]
293.15 K, x2 = 0.0606	1117.8	1446.5
293.15 K, x2 = 0.1118	1168.99	1406.4
293.15 K, x2 = 0.2003	1234.54	1358.1
293.15 K, x2 = 0.3056	1289.66	1319.6
293.15 K, x2 = 0.408	1328.41	1294.8
293.15 K, x2 = 0.4987	1355.11	1279.5
293.15 K, x2 = 0.602	1379.69	1265.9
293.15 K, x2 = 0.7047	1399.49	1256.2
293.15 K, x2 = 0.7945	1413.97	1249.2
293.15 K, x2 = 0.8971	1428	1243.5
298.15 K, x2 = 0.0606	1113.84	1435.8
298.15 K, x2 = 0.1118	1164.21	1395.8
298.15 K, x2 = 0.2003	1230.02	1345.7
298.15 K, x2 = 0.3056	1284.95	1307.6
298.15 K, x2 = 0.408	1323.62	1283.1
298.15 K, x2 = 0.4987	1350.28	1268
298.15 K, x2 = 0.602	1374.74	1254.5
298.15 K, x2 = 0.7047	1394.49	1244.9
298.15 K, x2 = 0.7945	1409	1238
298.15 K, x2 = 0.8971	1423.19	1232.2
303.15 K, x2 = 0.0606	1109.82	1422.8
303.15 K, x2 = 0.1118	1161.05	1382.1
303.15 K, x2 = 0.2003	1225.5	1333.5
303.15 K, x2 = 0.3056	1280.27	1295.7
303.15 K, x2 = 0.408	1318.85	1271.4
303.15 K, x2 = 0.4987	1345.27	1256.6
303.15 K, x2 = 0.602	1369.61	1243.2
303.15 K, x2 = 0.7047	1389.48	1233.8
303.15 K, x2 = 0.7945	1404.07	1226.9
303.15 K, x2 = 0.8971	1418.39	1221.1
308.15 K, x2 = 0.0606	1105.77	1408.7
308.15 K, x2 = 0.1118	1156.91	1367.8
308.15 K, x2 = 0.2003	1220.98	1321.3
308.15 K, x2 = 0.3056	1275.59	1283.8
308.15 K, x2 = 0.408	1314.09	1259.9
308.15 K, x2 = 0.4987	1340.46	1245.3
308.15 K, x2 = 0.602	1364.78	1232
308.15 K, x2 = 0.7047	1384.7	1222.7
308.15 K, x2 = 0.7945	1399.37	1215.9
308.15 K, x2 = 0.8971	1413.61	1210.2
313.15 K, x2 = 0.0606	1101.68	1396.5
313.15 K, x2 = 0.1118	1152.58	1356.3
313.15 K, x2 = 0.2003	1216.47	1309.3
313.15 K, x2 = 0.3056	1270.92	1272.2
313.15 K, x2 = 0.408	1309.33	1248.6
313.15 K, x2 = 0.4987	1335.67	1234.1
313.15 K, x2 = 0.602	1359.98	1220.9
313.15 K, x2 = 0.7047	1379.79	1211.8
313.15 K, x2 = 0.7945	1394.5	1205
313.15 K, x2 = 0.8971	1408.84	1199.3
318.15 K, x2 = 0.0606	1097.57	1383.2
318.15 K, x2 = 0.1118	1147.96	1343.7
318.15 K, x2 = 0.2003	1211.95	1297.3
318.15 K, x2 = 0.3056	1266.24	1260.6
318.15 K, x2 = 0.408	1304.59	1237.3
318.15 K, x2 = 0.4987	1330.88	1223.1
318.15 K, x2 = 0.602	1355.18	1210.1
318.15 K, x2 = 0.7047	1374.95	1201
318.15 K, x2 = 0.7945	1389.43	1194.3
318.15 K, x2 = 0.8971	1404.09	1188.6
